From patent US7824914B2, “Flavonoids-rich tissues from Neomarica gracilis and methods for culturing the same” (Tatung Company, priority 2006, dated 2010)
“And” between values parts separate entries of the source, which are not always exact repeats. Identical values can stand only once.

What was measured:
Format in all cases: cell-based, Neomarica gracilis
[1] = tested on: N. gracilis rhizome tissue; experiment: Effect of plant growth regulators on N. gracilis rhizome tissue growth and tectorigenin content in flask culture
Protocol: (2) To determine the effect of plant growth regulators (PGR), sprouts from liquid cultured N. gracilis rhizome tissue were removed with a scalpel. The rhizome tissue was inoculated at an inoculum weight of 3% (g F.W./50 ml) in culture medium containing MS basic medium supplemented with PGRs as shown in Table 2. The culture medium was changed every two weeks. The cultured tissue was weighted at each medium change for a total of eight weeks.
N. gracilis rhizome tissue was frozen at −80° C. for 10 hours, dried in a refrigerated vacuum drier (VirTis Freezemobile 12XL) overnight, and grinded. 0.5 g of dried and grinded tissue was suspended in adequate amount of methanol in a 10 ml flask, […] incubated at 60° C. with ultrasonic vibration for 1 hour, and cooled. Methanol was then added to the suspension to a final volume of 10 ml. The suspension was filtered with Whatman No. 1 filter paper. The filtered solution was sealed in brown sample vials and placed in cold room for future experiments.
(§1) The tectorigenin content of the tissue extract was determined by HPLC analysis using a Cosmosil 5 C18-AR-II column (5 μm, 4.6×250 mm), a Lichrospher® 100 RP-18e Guard column (45×4.6 mm, 5 μm, Merck), a Degasser (ERC-3415α) Pump, a Waters 600E Autosampler and Injector (Schambeck SGD GmbH S5200), a Waters TM 486 UV/VIS Detector, and an Integrator (SISC Xunhua Ltd.). The analysis was performed using a methanol:H2O (0.1% Acetic acid) ratio of 55:45, a flowrate of 0.8 ml/min, and a detection wavelength of 265 nm. The tectorigenin peak of the standard appeared at about 13 min appear.
N. gracilis rhizome tissue was inoculated at an inoculum weight of 3% (g F.W./[…]) in culture medium containing MS supplemented with various amount of PGRs (Table 2). The culture medium was changed and the fresh weight of the tissues was measured every two weeks. Significant increases in fresh weight were observed during 6-8 weeks of culture (FIG. 3).

[2] = tested on: N. gracilis rhizome tissue; experiment: Effect of ancymidol on sprout formation and tectorigenin content of cultured rhizome tissue
Protocol: (§2) (4) To determine ancymidol's effect on sprout formation and tectorigenin content, liquid cultured N. gracilis rhizome tissue was inoculated at an inoculum weight of 3% (g F.W./100 ml) to a subculture medium containing MS, 0.5 mg/L BA, 0.1 mg/L 2,4-D and 0.84 mg/L NAA. At day 7 and 14 of the culture, sterilely filtered (0.2 um) ancymidol was added to the culture medium to a final concentration of 0.5, 1.0, or 2.0 mg/L. The growth of the tissue was monitored and the tectorigenin content analyzed.
as §1
as §2, with “Liquid” for “(4) To determine ancymidol's effect on sprout formation and tectorigenin content, liquid”

[3] = tested on: N. gracilis rhizome tissue; experiment: Effect of PGRs on growth and tectorigenin content in TIS culture; settings: for Growth rate: (Final F.W. − Initial F.W.)/Initial F.W.; for F.W. / Tectorigenin: week 4
Protocol: (2) To determine the effect of PLRs on the grows of N. gracilis and the tectorigenin content influence, ten pieces of liquid cultured N. gracilis rhizome tissue were inoculated in culture media containing MS and PGRs described in samples MS0, TI3, TI4, TI5 and TI6 of Table 3. The culture media were replaced on week 2 and the tissues were harvested on week 4 and analyzed for tectorigenin content.
as §1
To determine the effect of PGRs on the tectorigenin content, ten pieces of liquid cultured N. gracilis rhizome tissue (1.5 g each) were inoculated in culture media containing MS and PGRs described in samples MS0, TI3, TI4, TI5 and TI6 of Table 3. The tissues were harvested on week 4 and analyzed for tectorigenin content.

[4] = tested on: N. gracilis rhizome tissue; experiment: Effect of inoculum weight and PGRs on tissue growth in TIS culture; settings: 1 mg/L kinetin, inoculum weight 1.5 g, 30 days
Protocol: (1) To determine the effect of the inoculation weight on tissue growth, the TIS culture chamber was divided into four areas. Liquid cultured N. gracilis rhizome tissue was inoculated at 1.5, 3, 6 and 9 g in each area. The culture medium was an MS medium supplemented with PGR as described in samples T12, T17 and T18 of Table 3. The tissues were cultured under conditions detailed in the Plantima® user's manual and immersed for two minutes every three hours. The cultured tissue was weighted and the medium replaced every ten days.
The TIS culture chamber was divided into four areas and liquid cultured N. gracilis rhizome tissue was inoculated at an inoculum weight of 1.5, 3, 6 and 9 g in each area. The culture medium was MS medium supplemented with PGR as described in samples TI2, TI7 and TI8 of Table 3. The cultured tissue was weighted every ten days. […] All other inoculum weights/PGR combinations led to slower growth (FIG. 7).

[5] = tested on: N. gracilis rhizome tissue; experiment: Tectorigenin content during growth of rhizome tissue in flask culture (weekly for 8 weeks); settings: 0.1 mg/L NAA, week 1, flask culture
Protocol: (3) To determining the growth curve of N. gracilis rhizome tissue and the tectorigenin content, sprouts from liquid cultured N. gracilis rhizome tissues were removed with a scalpel. The rhizome tissue was inoculated at an inoculum weight (g F.W./50 ml) in culture medium containing the MS basic medium supplemented with 0.1 mg/L NAA or a mixture of 1 mg/L NAA and 1.0 mg/L 2,4-D. The tissues were weighted and analyzed for tectorigenin content every week for eight consecutive weeks.
as §1
Rhizome tissue was inoculated at an inoculum weight of 3% (g F.W./50 ml) in culture medium containing MS basic medium supplemented with 0.1 mg/L NAA or a mixture of 1 mg/L NAA and 1.0 mg/l 2,4-D. The tissues were weighted and analyzed for tectorigenin content every week for eight consecutive weeks.

[6] = 2,4-D 0.1 mg/l, NAA 0, 8 weeks flask culture
[7] = 2,4-D 1.0 mg/l, NAA 0, 8 weeks flask culture
[8] = IAA 0.1 mg/L, Kinetin 0, 8 weeks flask culture
[9] = IAA 0.5 mg/L, Kinetin 0, 8 weeks flask culture
[10] = IAA 1 mg/L, Kinetin 0, 8 weeks flask culture
[11] = NAA 0.1 mg/l, 2,4-D 0, 8 weeks flask culture
[12] = NAA 0.5 mg/l, 2,4-D 0, 8 weeks flask culture
[13] = NAA 1.0 mg/l, 2,4-D 0, 8 weeks flask culture
[14] = NAA 2.0 mg/l, 2,4-D 0, 8 weeks flask culture

For O=C(O)COc1ccc(Cl)cc1Cl [2,4-D, 2,4-dichlorophenoxyacetic acid], the Dry weight [1, 6] was 0.92 ± 0.15 bc g, the Tectorigenin [1, 6] was 38.9 ± 1.17 cd mg/kg D.W and the Dry weight [1, 7] was 1.17 ± 0.21 ab g. It also gave a Tectorigenin [1, 7] of 36.7 ± 0.33 cd mg/kg D.W.
COc1ccc(C(O)(c2cncnc2)C2CC2)cc1 (stereo not shown) [Ancymidol, ancymidol] was tested, and the “effect on tectorigenin content (in words)” value ([2]; 0.5 or 2.0 mg/L added on day 14) was “reduced tectorigenin content”, the Tectorigenin ([2]; Ancymidol 0.5 mg/L added day 7, 3 weeks of culture) was 28.31 ± 0.11 b mg/kg D.W and the Tectorigenin ([2]; Ancymidol 0.5 mg/L added day 14, 3 weeks of culture) was 18.59 ± 0.07 c mg/kg D.W. For the same compound, the Tectorigenin ([2]; Ancymidol 1.0 mg/L added day 7, 3 weeks of culture) was 27.74 ± 0.08 b mg/kg D.W, the Tectorigenin ([2]; Ancymidol 1.0 mg/L added day 14, 3 weeks of culture) was 30.81 ± 0.35 a mg/kg D.W and the Tectorigenin ([2]; Ancymidol 2.0 mg/L added day 7, 3 weeks of culture) was 35.65 ± 0.18 a mg/kg D.W. For the same compound, the Tectorigenin ([2]; Ancymidol 2.0 mg/L added day 14, 3 weeks of culture) was 13.36 ± 0.13 d mg/kg D.W, the “effect on tectorigenin content (in words)” value ([2]; added on day 7) was “did not affect the tectorigenin content” and the “sprout formation (morphology)” value ([2]; added on day 7) was “significant reduction of sprout formation”.
Compound O=C(O)Cc1c[nH]c2ccccc12 [IAA, indole-3-acetic acid] has a Dry weight [1, 8] of 1.26 ± 0.22 b g, a Tectorigenin [1, 8] of 11.8 ± 8.4 b mg/kg D.W and a Dry weight [1, 9] of 1.02 ± 0.11 bc g. The Tectorigenin [1, 9] was 37.6±4.9 mg/kg D.W. and 37.6 ± 4.9 a mg/kg D.W, the Dry weight [1, 10] was 1.70 ± 0.08 a g and the Tectorigenin [1, 10] was 29.0 ± 0.29 c mg/kg D.W.
c1coc(CNc2ncnc3[nH]cnc23)c1 [Kinetin, kinetin] was tested, and the “change of tectorigenin content (in words)” value ([1]; flask culture, 8 weeks) was “did not result in any increase in the tectorigenin content”, the Growth rate ([3]; Kinetin 1.0 mg/l) was 2.07 ± 0.15 and the F.W. ([3]; Kinetin 1.0 mg/l) was 46.12 ± 2.18 g. The Tectorigenin ([3]; Kinetin 1.0 mg/l) was 10 ± 0.15 mg/kg D.W, the fresh weight [4] was 6.76 ± 0.33 g and the “fresh weight as fold of the inoculum weight” value [4] was 4.5 fold.
O=C(O)Cc1cccc2ccccc12 [NAA, α-naphthaleneacetic acid] was tested, and the Dry weight [1, 11] was 1.39 ± 0.32 a g, the Tectorigenin [1, 11] was 55.5±0.67 mg/kg D.W. and 55.5 ± 0.67 ab mg/kg D.W and the Dry weight [1, 12] was 1.03 ± 0.31 bc g. The Tectorigenin [1, 12] was 59.9±0.23 mg/kg D.W. and 58.9±0.23 mg/kg D.W. and 58.9 ± 0.23 ab mg/kg D.W, the Dry weight [1, 13] was 1.05 ± 0.20 bc g and the Tectorigenin [1, 13] was 49.0 ± 0.81 bc mg/kg D.W. For the same compound, the Dry weight [1, 14] was 0.75 ± 0.02 cd g, the Tectorigenin [1, 14] was 9.4 ± 0.22 e mg/kg D.W and the “tectorigenin content (highest, during week 1)” value [5] was 56±2.82 mg/kg D.W. It also gave a Growth rate ([3]; NAA 0.1 mg/l) of 1.71 ± 0.14, a F.W. ([3]; NAA 0.1 mg/l) of 40.65 ± 2.09 g and a Tectorigenin ([3]; NAA 0.1 mg/l) of 38 ± 0.57 mg/kg D.W. It also gave a Growth rate ([3]; NAA 0.5 mg/l) of 1.10 ± 0.21, a F.W. ([3]; NAA 0.5 mg/l) of 31.47 ± 3.12 g and a Tectorigenin ([3]; NAA 0.5 mg/l) of 33 ± 0.38 mg/kg D.W.
